± gives the standard deviation of the reports.
| SMILES | glass transition temperature [°C] |
| --- | --- |
| *O[Si](C)(C)[Si](*)(C)C (repeat unit) | -119.00 |
| *CCCCCCOC(=O)c1ccc(-c2ccc(-c3ccc(C(=O)O*)cc3)cc2)cc1 (repeat unit) | 60.00 |
| *C(=O)OCCOC(=O)c1ccc(C(=O)OCCOC(=O)N2CCN(*)CC2)cc1 (repeat unit) | 53.00 |
| *CC(*)n1c2ccccc2c2cc3ccccc3cc21 (repeat unit) | 253.00 |
| *CC(*)(C)C(=O)OCCOc1ccc(/N=N/c2ccc(OC)cc2)cc1 (repeat unit) | 109.00 |
| *C(=O)Nc1cccc(S(=O)(=O)c2cccc(NC(=O)c3ccc4c(c3)C(=O)N(c3ccc(-c5sc(-c6ccc(N7C(=O)c8ccc(*)cc8C7=O)cc6)c(-c6ccccc6)c5-c5ccccc5)cc3)C4=O)c2)c1 (repeat unit) | 320.00 |
| *Oc1ccc(C(=O)OCCCCOC(=O)c2ccc(*)cc2)cc1 (repeat unit) | 38.00 |
| *c1ccc2c(c1)C(=O)N(c1cc(C(c3ccc(OC(C)=O)c(N4C(=O)c5ccc(C(*)(C(F)(F)F)C(F)(F)F)cc5C4=O)c3)(C(F)(F)F)C(F)(F)F)ccc1OC(C)=O)C2=O (repeat unit) | 266.50 |
| *Oc1ccc(C2(c3ccc(Oc4ccc(-c5ccc(-c6ccc(*)c(C(F)(F)F)c6)cc5)cc4C(F)(F)F)cc3)c3ccccc3-c3ccccc32)cc1 (repeat unit) | 237.00 |
| */C=C/c1cc(OCC2CC3CC2C2CCCC32)c(*)cc1OC (repeat unit) | 174.00 |
| *O[Si](*)(C)OCCOCCOCCOC (repeat unit) | -120.10 |
| *c1ccc2c(c1)C(=O)N(c1ccc(C(=O)Nc3ccc(Oc4ccc(C(C)(C)c5ccc(Oc6ccc(NC(=O)c7ccc(N8C(=O)c9ccc(C(*)(C(F)(F)F)C(F)(F)F)cc9C8=O)cc7)cc6)cc5)cc4)cc3)cc1)C2=O (repeat unit) | 266.00 |
| *OC(C)C#CC#CC(C)OC(=O)c1ccc(C(*)=O)cc1 (repeat unit) | 133.00 |
| *CCOCCOCCOc1ccc(NC(=O)c2cccc(C(=O)Nc3ccc(O*)cc3)c2)cc1 (repeat unit) | 129.00 |
| *c1ccc(C(=O)c2ccc(Oc3ccc(-c4nn(*)c(=O)c5ccccc45)cc3)cc2)cc1 (repeat unit) | 263.00 |
| *c1cccc(C(=O)c2ccc(Oc3ccc(N4C(=O)c5ccc(Oc6ccc7c(c6)C(=O)N(*)C7=O)cc5C4=O)cc3)cc2)c1 (repeat unit) | 232.00 |
| *Oc1ccc(C(C)(C)c2ccc(OC(=O)CC(C)CCC(*)=O)cc2)cc1 (repeat unit) | 56.00 |
| *CC(=O)Nc1ccc(Cc2ccc(NC(=O)COc3ccc4ccccc4c3Sc3c(O*)ccc4ccccc34)cc2)cc1 (repeat unit) | 241.00 |
| *c1ccc(CCc2ccccc2N2C(=O)C(=O)N(c3ccc(Oc4ccc(N5C(=O)C(=O)N(*)C5=O)cc4)cc3)C2=O)cc1 (repeat unit) | 208.00 |
| *Oc1ccc(/N=C/c2ccc(Oc3ccc(C(C)(C)c4ccc(Oc5ccc(/C=N/c6ccc(Oc7ccc(-c8ccc(*)cc8)cc7)cc6)cc5)cc4)cc3)cc2)cc1 (repeat unit) | 120.00 |
| *Oc1ccc(CC(NC(=O)CCc2ccc(OC(=O)CCCCCCCCC(*)=O)cc2)C(=O)OCCCCCC)cc1 (repeat unit) | 22.00 |
| *CC(CC)(CC)COC(=O)Nc1ccc(C)c(NC(=O)O*)c1 (repeat unit) | -60.00 |

| SMILES | glass transition temperature [°C] |
| --- | --- |
| *Oc1ccc(/C(=N/c2ccc(/N=C(\c3ccccc3)c3ccc(Oc4ccc(C(C)(C)c5ccc(*)cc5)cc4)cc3)cc2)c2ccccc2)cc1 (repeat unit) | 161.00 |
| *c1c(C)cc(Cc2cc(C)c(N3C(=O)c4ccc(Oc5cc6ccccc6cc5Oc5ccc6c(c5)C(=O)N(*)C6=O)cc4C3=O)c(C)c2)cc1C (repeat unit) | 265.00 |
| *c1ccc(Oc2ccc(N3C(=O)c4cccc(Oc5cccc(Oc6cccc7c6C(=O)N(*)C7=O)c5)c4C3=O)cc2)cc1 (repeat unit) | 226.00 |
| *Oc1ccc(C(c2ccccc2)c2ccc(OC(*)=O)cc2C)c(C)c1 (repeat unit) | 182.00 |
| *c1ccc(Oc2ccc(S(=O)(=O)c3ccc(Oc4ccc(-c5c6c(c(*)c7ccccc57)C(=O)N(c5ccc(C(F)(F)F)cc5)C6=O)cc4)cc3)cc2)cc1 (repeat unit) | 290.00 |
| *CC(*)(C)C(=O)OCCCn1c2ccccc2c2ccccc21 (repeat unit) | 113.00 |
| *OC(F)(F)C(F)(F)C(F)(F)C(*)(F)F (repeat unit) | -55.00 |
| *c1cccc(N2C(=O)c3c(c(-c4ccccc4)c(-c4ccc(-c5c(-c6ccccc6)c6c(c(-c7ccccc7)c5-c5ccccc5)C(=O)N(*)C6=O)cc4)c(-c4ccccc4)c3-c3ccccc3)C2=O)c1 (repeat unit) | 416.00 |
| *c1c(C)cc(C(c2cccc(C(F)(F)F)c2)c2cc(C)c(N3C(=O)c4ccc(Oc5ccc6c(c5)C(=O)N(*)C6=O)cc4C3=O)c(C)c2)cc1C (repeat unit) | 264.10 |
| *C(=O)Nc1ccc(Oc2ccccc2-c2ccccc2Oc2ccc(NC(=O)c3ccc4c(c3)C(=O)N(c3ccc(Oc5ccccc5-c5ccccc5Oc5ccc(N6C(=O)c7ccc(*)cc7C6=O)cc5)cc3)C4=O)cc2)cc1 (repeat unit) | 227.00 |
| *Oc1ccc(C(=O)c2ccc(*)cc2)cc1 (repeat unit) | 154.00 |
| *Oc1ccc(Oc2ccc(NC(=O)c3ccc(Oc4ccc(C(C)(C)c5ccc(C(C)(C)c6ccc(Oc7ccc(C(=O)Nc8ccc(*)cc8)cc7)cc6)cc5)cc4)cc3)cc2)cc1 (repeat unit) | 165.00 |
| *c1ccc(-c2cc(C(C)(C)C)c(Oc3ccc(N4C(=O)c5ccc6c7c(ccc(c57)C4=O)C(=O)N(*)C6=O)cc3C(F)(F)F)c(C(C)(C)C)c2)cc1 (repeat unit) | 456.00 |
| *C(=O)c1ccc2c(c1)C(=O)N(c1c(CC)cc(Cc3cc(CC)c(N4C(=O)c5ccc(*)cc5C4=O)c(CC)c3)cc1CC)C2=O (repeat unit) | 272.50 ± 33 |
| *CC(*)(C)C(=O)OCC(C)Oc1ccc(-c2ccc(-c3ccc(C#N)cc3)cc2)cc1 (repeat unit) | 140.00 |
| *c1ccc(Oc2ccc(NC(=O)c3ccc(Oc4cccc5c4C(=O)N(*)C5=O)cc3)cc2)cc1 (repeat unit) | 253.00 |
| *CCOCCOCCN1C(=O)c2ccc(C(=O)Oc3ccc(C(C)(C)c4ccc(OC(=O)c5ccc6c(c5)C(=O)N(*)C6=O)cc4)cc3)cc2C1=O (repeat unit) | 118.00 |
| *C(=O)c1cccc(C(=O)c2ccc3c(c2)C(=O)N(c2ccc(Oc4ccc(N5C(=O)c6ccc(*)cc6C5=O)cc4)cc2)C3=O)c1 (repeat unit) | 244.00 |
| *C(=O)c1ccc2c(c1)C(=O)N(c1cccc(C(=O)c3ccc(Oc4ccc(N5C(=O)c6ccc(*)cc6C5=O)cc4)cc3)c1)C2=O (repeat unit) | 251.00 |
| *O[Si](*)(C)CCCCC (repeat unit) | -112.00 |
| *C1C(=O)N(CCOc2ccc(-c3ccc(C#N)cc3)cc2)C(=O)C1* (repeat unit) | 150.00 |
| *CC(O)CN(C)S(=O)(=O)c1cccc(S(=O)(=O)N(C)CC(O)COc2ccc(S(=O)(=O)c3ccc(O*)cc3)cc2)c1 (repeat unit) | 100.00 |

| SMILES | glass transition temperature [°C] |
| --- | --- |
| *Cc1ccc(CO*)cc1 (repeat unit) | 217.00 |
| *CCOC(=O)c1cccc2c(C(=O)O*)cccc12 (repeat unit) | 78.00 |
| *CCOC(=O)CCCCCCCCC(=O)O* (repeat unit) [Poly(ethylene sebacate)] | -29.6 ± 3.9 |
| *CC(CSCCCCC)O* (repeat unit) | -68.00 |
| *c1ccc(Oc2ccc(S(=O)(=O)c3ccc(Oc4ccc(-c5c6c(c(*)c7ccccc57)C(=O)N(C)C6=O)cc4)cc3)cc2)cc1 (repeat unit) | 314.00 |
| *Oc1ccc(NC(=O)c2cc(C(=O)Nc3ccc(*)cc3)cc(C(F)(F)C(F)(F)C(F)(F)C(F)(F)F)c2)cc1 (repeat unit) | 257.00 |
| *C(=O)Nc1cccc(NC(=O)c2ccc3c(c2)C(=O)N(c2cc(-c4nc5ccccc5s4)cc(N4C(=O)c5ccc(*)cc5C4=O)c2)C3=O)n1 (repeat unit) | 358.00 |
| *C1C(=O)N(c2c(CC)cccc2CC)C(=O)C1* (repeat unit) | 288.00 |
| *Nc1cc(NC(=O)c2cc(NC(=O)C(C(C)CC)N3C(=O)c4ccccc4C3=O)cc(C(*)=O)c2)ccc1C (repeat unit) | 166.00 |
| *Oc1ccc(CC(NC(=O)CCc2ccc(OC(=O)COCC(*)=O)cc2)C(=O)OCCCC)cc1 (repeat unit) | 64.00 |
| *OC(=O)c1ccc(/N=N/c2ccc(C(=O)OC3COC4C(*)COC34)cc2)cc1 (repeat unit) | 98.00 |
| *Oc1ccc(CC(NC(=O)CCc2ccc(OC(=O)COCC(*)=O)cc2)C(=O)OCCCCCC)cc1 (repeat unit) | 45.00 |
| *CC(CSCCCC)O* (repeat unit) | -65.00 |
| *CCCCCCCCNC(=O)CCCCCCCCCCCCCCCCCCCCC(=O)N* (repeat unit) | 48.00 |
| *Oc1ccc(Cc2ccc(OC(=O)CCCCC(*)=O)cc2)cc1 (repeat unit) | 60.50 |
| *NC1CC(C)(C)CC(C)(CNC(=O)c2cc(NC(=O)C(C(C)CC)N3C(=O)c4ccccc4C3=O)cc(C(*)=O)c2)C1 (repeat unit) | 128.00 |
| *=Nc1ccc(Cc2ccc(NC(=*)CCCC)cc2)cc1 (repeat unit) | 106.00 |
| */C=C/c1ccc(*)c(-c2c(OCC(CC)CCCC)ccc3cc(-c4ccccc4)ccc23)c1 (repeat unit) | 141.00 |
| *CC(*)c1ccc(C(C)(O)CCCC)cc1 (repeat unit) | 90.00 |
| *C/C=C/COC(=O)CCCCCCCCC(=O)O* (repeat unit) | -41.00 |

Source: the PolyMetriX glass transition set
